Laboratory results reported in ChEMBL document CHEMBL1275511, “Molecular and biochemical characterization of SHV-56, a novel inhibitor-resistant beta-lactamase from Klebsiella pneumoniae” (Antimicrob Agents Chemother, 2008).
Values after ≈ are worked out from the molar mass of the structure shown.

Assays:
[1] = system: Escherichia coli; test: Activity of Escherichia coli Inhibitor-resistant beta-lactamase SHV-56; details: JM109
[2] = system: Klebsiella pneumoniae; test: Antimicrobial activity against Klebsiella pneumoniae Kp2792 expressing beta-lactamase SHV-56 by agar dilution method; assay type: functional
[3] = system: Escherichia coli; test: Antimicrobial activity against Escherichia coli JM109 by agar dilution method; assay type: functional
[4] = system: Escherichia coli; test: Antimicrobial activity against Escherichia coli JM109 harboring pE1MD plasmid expressing beta-lactamase SHV-56 by agar dilution method; assay type: functional
[5] = system: Klebsiella pneumoniae; test: microbe, parasite or virus in culture; details: Kp2792
[6] = system: Escherichia coli; test: Antimicrobial activity against Escherichia coli JM109 harboring pE1MD plasmid expressing beta-lactamase SHV-56 by agar dilution method in presence of Sulbactam; assay type: functional
[7] = system: Escherichia coli; test: Antimicrobial activity against Escherichia coli JM109 harboring pSC1 plasmid expressing beta-lactamase SHV-56 by agar dilution method in presence of Sulbactam; assay type: functional
[8] = system: Escherichia coli; test: Antimicrobial activity against Escherichia coli JM109 harboring pE1 plasmid expressing beta-lactamase SHV-11 by agar dilution method; assay type: functional
[9] = system: Escherichia coli; test: Antimicrobial activity against Escherichia coli JM109 harboring pSC1 plasmid expressing beta-lactamase SHV-56 by agar dilution method; assay type: functional
[10] = system: Escherichia coli; test: Antimicrobial activity against Escherichia coli JM109 harboring pE1 plasmid expressing beta-lactamase SHV-11 by agar dilution method in presence of Sulbactam; assay type: functional
[11] = Inhibition of Escherichia coli Inhibitor-resistant beta-lactamase SHV-56; parameters: species or system JM109
[12] = system: Escherichia coli; test: Antimicrobial activity against Escherichia coli JM109 harboring pE1 plasmid expressing beta-lactamase SHV-11 by agar dilution method in presence of clavulanic acid; assay type: functional
[13] = system: Escherichia coli; test: Antimicrobial activity against Escherichia coli JM109 by agar dilution method in presence of clavulanic acid; assay type: functional
[14] = system: Escherichia coli; test: Antimicrobial activity against Escherichia coli JM109 harboring pSC1 plasmid expressing beta-lactamase SHV-56 by agar dilution method in presence of clavulanic acid; assay type: functional
[15] = system: Escherichia coli; test: Antimicrobial activity against Escherichia coli JM109 harboring pE1MD plasmid expressing beta-lactamase SHV-56 by agar dilution method in presence of clavulanic acid; assay type: functional
[16] = system: Klebsiella pneumoniae; test: Antimicrobial activity against Klebsiella pneumoniae Kp2792 expressing beta-lactamase SHV-56 by agar dilution method in presence of clavulanic acid; assay type: functional
[17] = system: Escherichia coli; test: Antimicrobial activity against Escherichia coli JM109 harboring pSC1 plasmid expressing beta-lactamase SHV-56 by agar dilution method in presence of Tazobactam; assay type: functional
[18] = system: Escherichia coli; test: Antimicrobial activity against Escherichia coli JM109 by agar dilution method in presence of Tazobactam; assay type: functional
[19] = system: Escherichia coli; test: Antimicrobial activity against Escherichia coli JM109 harboring pE1 plasmid expressing beta-lactamase SHV-11 by agar dilution method in presence of Tazobactam; assay type: functional
[20] = system: Klebsiella pneumoniae; test: Antimicrobial activity against Klebsiella pneumoniae Kp2792 expressing beta-lactamase SHV-56 by agar dilution method in presence of Tazobactam; assay type: functional
[21] = system: Escherichia coli; test: Antimicrobial activity against Escherichia coli JM109 harboring pE1MD plasmid expressing beta-lactamase SHV-56 by agar dilution method in presence of Tazobactam; assay type: functional
[22] = system: Escherichia coli; test: Ratio of Kcat to Km for Escherichia coli Inhibitor-resistant beta-lactamase SHV-56; details: JM109
[23] = substrate: CCN1CCN(C(=O)N[C@@H](C(=O)N[C@@H]2C(=O)N3[C@@H]2SC(C)(C)[C@@H]3C(=O)O)c2ccccc2)C(=O)C1=O; test: (§1) Ratio of Kcat to Km for Escherichia coli beta-lactamase SHV-11; details: JM109
[24] = substrate: CO/N=C(\C(=O)N[C@@H]1C(=O)N2C(C(=O)O)=C(CSc3nc(=O)c(O)nn3C)CS[C@H]12)c1csc(N)n1; test: as §1; details: JM109
[25] = substrate: CO/N=C(\C(=O)N[C@@H]1C(=O)N2C(C(=O)O)=C(COC(N)=O)CS[C@H]12)c1ccco1; test: as §1; details: JM109
[26] = substrate: CC1(C)S[C@@H]2[C@H](NC(=O)[C@H](C(=O)O)c3ccsc3)C(=O)N2[C@H]1C(=O)O; test: as §1; details: JM109
[27] = substrate: CC(=O)OCC1=C(C(=O)O)N2C(=O)[C@@H](NC(=O)Cc3cccs3)[C@H]2SC1; test: as §1; details: JM109
[28] = substrate: CCN1CCN(C(=O)N[C@@H](C(=O)N[C@@H]2C(=O)N3[C@@H]2SC(C)(C)[C@@H]3C(=O)O)c2ccccc2)C(=O)C1=O; test: (§2) Activity of Escherichia coli beta-lactamase SHV-11; details: JM109
[29] = substrate: CO/N=C(\C(=O)N[C@@H]1C(=O)N2C(C(=O)O)=C(CSc3nc(=O)c(O)nn3C)CS[C@H]12)c1csc(N)n1; test: as §2; details: JM109
[30] = substrate: CC(C)(O/N=C(\C(=O)N[C@@H]1C(=O)N2C(C(=O)[O-])=C(C[n+]3ccccc3)CS[C@H]12)c1csc(N)n1)C(=O)O; test: as §2; details: JM109
[31] = substrate: CO[C@@]1(NC(=O)Cc2cccs2)C(=O)N2C(C(=O)O)=C(COC(N)=O)CS[C@@H]21; test: as §2; details: JM109
[32] = substrate: CO/N=C(\C(=O)N[C@@H]1C(=O)N2C(C(=O)O)=C(COC(C)=O)CS[C@H]12)c1csc(N)n1; test: as §2; details: JM109
[33] = substrate: CO/N=C(\C(=O)N[C@@H]1C(=O)N2C(C(=O)[O-])=C(C[N+]3(C)CCCC3)CS[C@H]12)c1csc(N)n1; test: as §2; details: JM109
[34] = substrate: CO/N=C(\C(=O)N[C@@H]1C(=O)N2C(C(=O)O)=C(COC(N)=O)CS[C@H]12)c1ccco1; test: as §2; details: JM109
[35] = substrate: CC1(C)S[C@@H]2[C@H](NC(=O)[C@H](C(=O)O)c3ccsc3)C(=O)N2[C@H]1C(=O)O; test: as §2; details: JM109
[36] = substrate: C[C@H]1[C@H](NC(=O)/C(=N\OC(C)(C)C(=O)O)c2csc(N)n2)C(=O)N1S(=O)(=O)O; test: as §2; details: JM109
[37] = substrate: CC(=O)OCC1=C(C(=O)O)N2C(=O)[C@@H](NC(=O)Cc3cccs3)[C@H]2SC1; test: as §2; details: JM109

## CO/N=C(\C(=O)N[C@@H]1C(=O)N2C(C(=O)[O-])=C(C[N+]3(C)CCCC3)CS[C@H]12)c1csc(N)n1
[1]
  kcat: < 0.01 s⁻¹
[2]
  MIC: ≤ 0.1 mg/L
[3]
  MIC: ≤ 0.1 mg/L

## CC1(C)S[C@@H]2[C@H](NC(=O)[C@H](N)c3ccccc3)C(=O)N2[C@H]1C(=O)O [AMPICILLIN]
[4]
  MIC: 1020 mg/L (≈ 2930 µM)
[5]
  MIC: 128 mg/L (≈ 366 µM)
[6]
  MIC: 64 mg/L
[7]
  MIC: 128 mg/L
[2]
  MIC: > 4100 mg/L
[8]
  MIC: 1020 mg/L (≈ 2930 µM)
[3]
  MIC: 4 mg/L (≈ 11.4 µM)
[9]
  MIC: 2050 mg/L (≈ 5860 µM)
[10]
  MIC: 128 mg/L

## CC(C)(O/N=C(\C(=O)N[C@@H]1C(=O)N2C(C(=O)[O-])=C(C[n+]3ccccc3)CS[C@H]12)c1csc(N)n1)C(=O)O
[1]
  kcat: < 0.01 s⁻¹

## C[C@H]1[C@H](NC(=O)/C(=N\OC(C)(C)C(=O)O)c2csc(N)n2)C(=O)N1S(=O)(=O)O
[1]
  kcat: < 0.01 s⁻¹

## CC1(C)[C@H](C(=O)O)N2C(=O)C[C@H]2S1(=O)=O [SULBACTAM]
[11]
  IC50: 0.3 µM

## CC1(C)S[C@@H]2[C@H](NC(=O)[C@H](N)c3ccc(O)cc3)C(=O)N2[C@H]1C(=O)O [AMOXICILLIN]
[4]
  MIC: 4100 mg/L (≈ 11200 µM)
[12]
  MIC: 2 mg/L
[2]
  MIC: > 4100 mg/L
[8]
  MIC: 2050 mg/L (≈ 5600 µM)
[13]
  MIC: 2 mg/L
[14]
  MIC: 512 mg/L
[3]
  MIC: 4 mg/L (≈ 10.9 µM)
[15]
  MIC: 256 mg/L
[9]
  MIC: 4100 mg/L (≈ 11200 µM)
[16]
  MIC: 4100 mg/L

## CO/N=C(\C(=O)N[C@@H]1C(=O)N2C(C(=O)O)=C(CSc3nc(=O)c(O)nn3C)CS[C@H]12)c1csc(N)n1
[1]
  kcat: < 0.01 s⁻¹

## CCN1CCN(C(=O)N[C@@H](C(=O)N[C@@H]2C(=O)N3[C@@H]2SC(C)(C)[C@@H]3C(=O)O)c2ccccc2)C(=O)C1=O [PIPERACILLIN]
[4]
  MIC: 64 mg/L (≈ 124 µM)
[17]
  MIC: 2 mg/L
[1]
  Km: 50 µM
  kcat: 50 s⁻¹
[18]
  MIC: 1 mg/L
[19]
  MIC: 2 mg/L
[2]
  MIC: 512 mg/L (≈ 989 µM)
[8]
  MIC: 64 mg/L (≈ 124 µM)
[20]
  MIC: 4 mg/L
[21]
  MIC: 1 mg/L
[3]
  MIC: 2 mg/L (≈ 3.86 µM)
[22]
  kcat/Km: 1e+06 M⁻¹ s⁻¹
[9]
  MIC: 512 mg/L (≈ 989 µM)

## CC(=O)OCC1=C(C(=O)O)N2C(=O)[C@@H](NC(=O)Cc3cccs3)[C@H]2SC1 [CEPHALOTHIN]
[4]
  MIC: 8 mg/L (≈ 20.2 µM)
[1]
  Km: 20 µM
  kcat: 0.1 s⁻¹
[2]
  MIC: 8 mg/L (≈ 20.2 µM)
[8]
  MIC: 8 mg/L (≈ 20.2 µM)
[3]
  MIC: 4 mg/L (≈ 10.1 µM)
[22]
  kcat/Km: 5000 M⁻¹ s⁻¹
[9]
  MIC: 8 mg/L (≈ 20.2 µM)

## CO[C@@]1(NC(=O)Cc2cccs2)C(=O)N2C(C(=O)O)=C(COC(N)=O)CS[C@@H]21
[1]
  kcat: < 0.01 s⁻¹

## CO/N=C(\C(=O)N[C@@H]1C(=O)N2C(C(=O)O)=C(COC(N)=O)CS[C@H]12)c1ccco1
[1]
  kcat: < 0.01 s⁻¹

## CC1(C)S[C@@H]2[C@H](NC(=O)[C@H](C(=O)O)c3ccsc3)C(=O)N2[C@H]1C(=O)O [TICARCILLIN]
[4]
  MIC: 2050 mg/L (≈ 5330 µM)
[1]
  Km: 450 µM
  kcat: 30 s⁻¹
[12]
  MIC: 2 mg/L
[2]
  MIC: > 4100 mg/L
[8]
  MIC: 2050 mg/L (≈ 5330 µM)
[13]
  MIC: 2 mg/L
[14]
  MIC: 256 mg/L
[3]
  MIC: 4 mg/L (≈ 10.4 µM)
[15]
  MIC: 128 mg/L
[22]
  kcat/Km: 70000 M⁻¹ s⁻¹
[9]
  MIC: > 4100 mg/L
[16]
  MIC: 1020 mg/L

## CO/N=C(\C(=O)N[C@@H]1C(=O)N2C(C(=O)O)=C(COC(C)=O)CS[C@H]12)c1csc(N)n1 [CEFOTAXIME]
[1]
  kcat: < 0.01 s⁻¹
[2]
  MIC: ≤ 0.1 mg/L
[3]
  MIC: ≤ 0.1 mg/L

## C[C@@H](O)[C@H]1C(=O)N2C(C(=O)O)=C(SCCNC=N)C[C@H]12 [IMIPENEM ANHYDROUS]
[2]
  MIC: ≤ 0.1 mg/L
[3]
  MIC: ≤ 0.1 mg/L

B1: Beta-lactamase SHV-11 (Escherichia coli), Q7X575 (protein)
chain: MRYIRLCIISLLATLPLAVHASPQPLEQIKQSESQLSGRVGMIEMDLASGRTLTAWRADERFPMMSTFKVVLCGAVLARVDAGDEQLERKIHYRQQDLVDYSPVSEKHLADGMTVGELCAAAITMSDNSAANLLLATVGGPAGLTAFLRQIGDNVTRLDRWETELNEALPGDARDTTTPASMAATLRKLLTSQRLSARSQRQLLQWMVDDRVAGPLIRSVLPAGWFIADKTGAGERGARGIVALLGPNNKAERIVVIYLRDTPASMAERNQQIAGIGAALIEHWQR
[23]
  kcat/Km: 750000 M⁻¹ s⁻¹
[24]
  kcat/Km: 350000 M⁻¹ s⁻¹
[25]
  kcat/Km: 250 M⁻¹ s⁻¹
[26]
  kcat/Km: 100000 M⁻¹ s⁻¹
[27]
  kcat/Km: 10000 M⁻¹ s⁻¹
[28]
  Km: 40 µM
  kcat: 30 s⁻¹
[29]
  Km: 300 µM
  kcat: 0.01 s⁻¹
[30]
  kcat: < 0.01 s⁻¹
[31]
  kcat: < 0.01 s⁻¹
[32]
  kcat: < 0.01 s⁻¹
[33]
  kcat: < 0.01 s⁻¹
[34]
  Km: 200 µM
  kcat: 0.05 s⁻¹
[35]
  Km: 20 µM
[36]
  kcat: < 0.01 s⁻¹
[37]
  Km: 50 µM
  kcat: 0.5 s⁻¹
